According to publication PMC9502403, “Saquayamycin B1 Suppresses Proliferation, Invasion, and Migration by Inhibiting PI3K/AKT Signaling Pathway in Human Colorectal Cancer Cells” (Marine Drugs, 2022):

Tests used:
[1] = test system: QSG-7701 cells; experiment: MTT cytotoxicity assay, QSG-7701 normal liver cells; type: cell-based; conditions: QSG7701, 48 h, normal human liver cells, mean ± SD
Protocol: (§1) Human CRC cell lines SW480 (BeNa Culture Collection, Xinyang, China), SW620 (Procell Life Science & Technology Co., Ltd., Wuhan, China), and HT-29 (Zhong Qiao Xin Zhou Biotechnology Co., Ltd., Shanghai, China) were cultured in RPMI 1640 Medium (Livning Biotechnology Co., Ltd., Beijing, China), LoVo cells (Zhong Qiao Xin Zhou Biotechnology Co., Ltd., Shanghai, China) were cultured in DMEM/F12 (Livning Biotechnology Co., Ltd., Beijing, China), and normal human liver cell line QSG-7701 (Beyotime Institute of Biotechnology, Shanghai, China) was cultured in DMEM/high glucose (Livning Biotechnology Co., Ltd., Beijing, China) containing 10% fetal bovine serum (FBS) (Gibco Life Technologies, San Jose, CA, USA). The cells were cultured in a constant temperature incubator at 37 °C, 5% CO2.
(§2) The cytotoxicity of Mor B, Saq B1, Saq B, and Lan N on CRC and the normal human liver cells was detected by MTT (3-(4,5-dimethylthiazol)-2,5-diphenyltetrazolium bromide) assay (Sigma-Aldrich Corp., St. Louis, MO, USA). Cells were evenly distributed in 96-well plates overnight and then treated with Mor B, Saq B1, Saq B, and Lan N at different concentrations for 48 h. The negative control group was treated with the same concentration of DMSO. After treatment, 10 μL of the 5 mg/mL MTT solution was added to each well in the incubator for 4 h. Then, the MTT solution was removed and 150 μL DMSO was added into each hole to dissolve the purple crystal. The absorbance of each well was read at 570 nm with a microplate reader, and the IC50 values were calculated using the software. Each sample was measured three times independently.

[2] = test system: LoVo cells; experiment: MTT cytotoxicity assay, LoVo; type: cell-based; conditions: Homo sapiens, 48 h, mean ± SD
Protocol: as §1, §2

[3] = test system: SW620 cells; experiment: MTT cytotoxicity assay, SW620; type: cell-based; conditions: Homo sapiens, SW-620, 48 h, mean ± SD
Protocol: as §1, §2

[4] = test system: HT-29 cells; experiment: MTT cytotoxicity assay, HT-29; type: cell-based; conditions: Homo sapiens, 48 h, mean ± SD
Protocol: as §1, §2

[5] = test system: SW480 cells; experiment: MTT cytotoxicity assay, SW480; type: cell-based; conditions: Homo sapiens, 48 h, mean ± SD
Protocol: as §1, §2

[6] = test system: CRC cells; experiment: MTT cytotoxicity assay, CRC cells (range over lines); type: cell-based; conditions: Homo sapiens, range over SW480, SW620, LoVo, HT-29
Protocol: as §1
as §2, with “The negative control group was treated with the same concentration of DMSO. After treatment, 10 μL of the 5 mg/mL MTT solution was added to each well in the incubator for 4 h. Then, the MTT solution was removed and 150 μL DMSO was added into each hole to dissolve the purple crystal.” left out

[7] = test system: SW480 cells; experiment: Colony formation assay; type: cell-based, human; conditions: SW480, with increasing concentration, 14 days
Source text: The cell colony formation assay is an important technique for detecting cell proliferation, invasiveness, and drug sensitivity. After digestion of trypsin in the logarithmic growth phase, the cells were inoculated on 6-well plates at a density of 700 cells/well. The medium was refreshed every 3 days and treatment continued for 14 days. Finally, the colonies were fixed with 4% paraformaldehyde and stained with crystal violet. Colonies with >50 cells were counted and photographed.

[8] = test system: E-cadherin, N-cadherin, and vimentin; experiment: Western blot of EMT markers; type: cell-based, human; conditions: SW480 and SW620 cells, 0–0.3 μmol/L
Protocol: (§3) Western blotting was used to reveal changes in the expression of specific proteins after Saq B1 treatment. The cells treated with varying doses of Saq B1 were lysed with RIPA buffer (Beyotime Biotech, Shanghai, China) to obtain total protein, which was quantified using a BCA kit. The proteins with different molecular weights were separated by SDS-PAGE electrophoresis. The protein was transferred to a PVDF membrane and sealed with 5% skim milk for 1 h. After washing with TBS-T buffer, the respective primary antibodies were added to the membrane and incubated at 4 °C overnight. Next, the PVDF membrane was washed with TBS-T buffer three times and incubated with antimouse IgG or antirabbit IgG secondary antibody (CST, Inc., Beverly, MA, USA) for 1 h at room temperature. Proteins on the membranes were visualized using the enhanced chemiluminescence detection kit (ECL®, Amersham Biosciences, Little Chalfont, UK).

[9] = test system: Bax/Bcl-2; experiment: Western blot of Bax and Bcl-2; type: cell-based, human; conditions: SW480 and SW620 cells
Protocol: as §3

[10] = test system: PI3K/AKT pathway; experiment: Western blot of PI3K, AKT, p-AKT; type: cell-based, human; conditions: SW480 and SW620 cells, 0.1 μM, 0.2 μM, and 0.3 μM
Protocol: as §3

[11] = test system: SW480 cells; experiment: Annexin V-FITC/PI flow cytometry of apoptosis, SW480; type: cell-based, human
Source text: (§4) Annexin V-FITC and Propidium Iodide (PI) apoptosis-detection kits were used to determine the specific proportion of apoptotic cells. Annexin V-FITC is used to detect phosphatidylserine, which moves from the inside of the membrane to the surface of the cell membrane during apoptosis, producing green fluorescence. Late apoptotic cells whose cell membrane integrity is destroyed can be stained with PI, producing red fluorescence.
(§5) An Annexin V-FITC apoptosis detection kit was used to detect cell apoptosis by flow cytometry after staining. The cells were placed in 6-well plates and digested by trypsin (Solarbio, Beijing, China) after Saq B1 treatment. Then, the cells were washed with PBS and centrifuged for 5 min, and the supernatant was discarded. Annexin V-FITC binding buffer was added to gently suspend the cells. Annexin V-FITC and PI were successively added and slowly mixed. Apoptosis was immediately assessed by flow cytometry (Becton, Dickinson and Company, San Jose, CA, USA). Each sample was measured three times.

[12] = test system: SW480 cells; experiment: Transwell migration and invasion assay; type: cell-based, human
Protocol: The transwell assay is used to test the ability of cells to invade and metastasize. In the invasion assay, we placed transwell chambers in a 24-well plate, and cells were suspended in 200 μL serum-free medium at the density of 1 × 10^5 cells/mL. Then, cells were added to an upper chamber containing Matrigel, while 700 μL of the medium containing 20% FBS as a chemo-attractant was added to the lower chamber. The cells were treated with various doses of Saq B1 and incubated with 5% CO2 at 37 °C. Thereafter, all media were discarded, and the cells in the lower chamber were fixed in 4% paraformaldehyde for 20 min and placed in 0.5% crystal violet dye for 20 min. After washing the cells with PBS three times, five regions were selected randomly under the microscope, pictures were taken, and the number of transmembrane cells was counted. The migration assay followed the same procedure as the invasion assay but without Matrigel. Each sample was evaluated independently three times.

[13] = test system: SW480 cells; experiment: Wound-healing assay; type: cell-based, human; conditions: SW480, with increasing dose, 48 h
Protocol: To determine the migratory ability of cells in vitro, we adopted the cell scratch test. Cells were placed in a 6-well plate at a density of 5 × 10^4 cells per well. When the cells had adhered to 90% of each well, we made equal-width scratches at the same position in each hole with sterile micropipette tips. Each well was washed three times with PBS to remove suspended cells. The cells in the well were treated with different concentrations of Saq B1. The wound-healing rate (%) = (1 − (the width of the assay group/the width of the control group)) × 100% was calculated according to the width of the scratches in each group to evaluate the migratory ability of the cells. Each sample was measured three times.

[14] = test system: SW620 cells; experiment: Annexin V-FITC/PI flow cytometry of apoptosis, SW620; type: cell-based, human
Source text: as §4, §5

Row | Compound | IC50 [1] [nM] | IC50 [2] [nM] | IC50 [3] [nM] | IC50 [4] [nM] | IC50 [5] [nM] | other results
1 | COc1cccc2c1C(=O)c1c(O)c3c(c(O)c1C2=O)C[C@@](O)(C(=O)CO)C[C@@H]3O[C@H]1C[C@H](N)[C@H](O)[C@H](C)O1 [Doxorubicin, reference compound] | 1330 ± 30 | 830 ± 120 | 1060 ± 110 | 1020 ± 100 | 910 ± 80 | –
2 | Cc1cc(O)c2c3c(cc(O)c2c1)C(=O)c1c(ccc([C@H]2C[C@H]4O[C@H]5CC(=O)[C@H](C)O[C@H]5O[C@@H]4[C@@H](C)O2)c1O)C3=O [Landomycin N] | > 20000 | > 20000 | > 20000 | > 20000 | > 20000 | –
3 | C[C@@H]1O[C@H]2O[C@@H]3[C@@H](C)O[C@@H](c4ccc5c(c4O)C(=O)c4ccc6c(c4C5=O)C(=O)C[C@](C)(O)C6)C[C@H]3O[C@H]2CC1=O [Moromycin B] | 1260 ± 150 | 780 ± 20 | 340 ± 50 | 820 ± 40 | 450 ± 60 | –
4 | C[C@@H]1O[C@H]2O[C@@H]3[C@@H](C)O[C@@H](c4ccc5c(c4O)C(=O)C4=C(C5=O)[C@@]5(O)C(=O)C[C@](C)(O)C[C@@]5(O)C=C4)C[C@H]3O[C@H]2CC1=O [Saquayamycin B1] | 1570 ± 120 | 630 ± 70 | 260 ± 30 | 840 ± 50 | 180 ± 10 | IC50 [6]: 180 to 840 nM; size and number of cell clones [7]: declined; expression of epithelial adhesion protein E-cadherin [8]: increased; expression of mesenchymal protein N-cadherin [8]: decreased; expression of mesenchymal protein vimentin [8]: decreased; expression of Bax/Bcl-2 [9]: increased; protein expression level of AKT [10]: basically unchanged; protein expression level of PI3K [10]: decreased; protein expression level of p-AKT [10]: decreased; apoptosis rate ([11]; SW480, Saq B1 0.1 μM): 24.31%; apoptosis rate ([11]; SW480, Saq B1 0.2 μM): 30.75%; apoptosis rate ([11]; SW480, Saq B1 0.3 μM): 40.12%; cellular migration and invasion [12]: dose-dependent inhibition; wound-healing rate of cells [13]: decreased gradually; apoptosis rate ([14]; SW620, Saq B1 0.1 μM): 8.11%; apoptosis rate ([14]; SW620, Saq B1 0.2 μM): 12.67%; apoptosis rate ([14]; SW620, Saq B1 0.3 μM): 30.69%
5 | C[C@@H]1O[C@@H](O[C@H]2CC[C@H](O[C@@]3(C)CC(=O)[C@]4(O)C5=C(C=C[C@]4(O)C3)C(=O)c3c(ccc([C@H]4C[C@H]6O[C@H]7CC(=O)[C@H](C)O[C@H]7O[C@@H]6[C@@H](C)O4)c3O)C5=O)O[C@H]2C)C=CC1=O [Saquayamycin B] | 1380 ± 140 | 750 ± 30 | 420 ± 20 | 890 ± 20 | 320 ± 30 | –
